# US9290473B2, “Inhibitors of phosphatidylinositol-3-kinase (PI3) and inducers of nitric oxide (NO)” (COUCIL OF SCIENTIFIC & INDUSTRIAL RESEARCH, priority 2009, dated 2016)
# Where two headings read alike, the source gives them in different places.
# What was measured:
# [1] = test system: Normal human peripheral blood mononuclear cells (PBMC); assay: Cell viability, trypan blue exclusion, normal PBMC; assay type: cell-based; details: 72 hours incubation
# Source text: (§1) Following cancer cell lines were used: chronic myeloid leukemia cell lines K562, KU812; acute myeloid leukemia cell lines HL60, U937; T-lymphoblastic leukemia cell line Molt-4; prostate cancer cell line PC-3; breast cancer cell line MCF-7; pancreatic cancer cell line MIA PaCa-2. These cancer cell lines were maintained in tissue culture in standard growth medium containing 10% heat-inactivated fetal bovine serum (FBS). Normal human peripheral blood mononuclear cells (PBMC) were separated from whole blood by Ficoll/Hypaque density gradient centrifugation. Peripheral blood samples were collected from normal donors with due approval from the Human Ethics Committee of Indian Institute of Chemical Biology, Kolkata, India, and all experiments with human blood were conducted under an approved institutional Human Ethics committee protocol. Informed consent was provided according to the Declaration of Helsinki. Cancer cell lines and PBMC (5×10^3) in triplicate were incubated in 0.2 mL of standard growth medium containing 10% FBS with varying concentrations of test compounds of the present invention. After 72 hours of incubation, cells were collected by centrifugation (at 1000 g for 5 minutes) and cell-viability was determined by the trypan blue exclusion assay. At least 200 cells were examined in each sample. Because of monolayer culture, treated and untreated PC-3, MCF-7 and MIA PaCa-2 cells were detached from the wells by treatment with Cell Dissociation Solution (Sigma Chemical, St. Louis, Mo.) before counting. Data are represented as IC50 (minimum concentration required to inhibit the viability by 50%) in Table 5.
# [2] = test system: chronic myeloid leukemia cell line K562; assay: Cell viability, trypan blue exclusion, K562; assay type: cell-based; details: Homo sapiens
# Source text: as §1
# [3] = test system: chronic myeloid leukemia cell line KU812; assay: Cell viability, trypan blue exclusion, KU812; assay type: cell-based; details: Homo sapiens, 72 hours incubation
# Source text: as §1
# [4] = test system: acute myeloid leukemia cell line HL60; assay: Cell viability, trypan blue exclusion, HL-60; assay type: cell-based; details: Homo sapiens
# Source text: as §1
# [5] = test system: acute myeloid leukemia cell line U937; assay: Cell viability, trypan blue exclusion, U937; assay type: cell-based; details: Homo sapiens, U-937, 72 hours incubation
# Source text: as §1
# [6] = test system: T-lymphoblastic leukemia cell line Molt-4; assay: Cell viability, trypan blue exclusion, Molt-4; assay type: cell-based, human; details: 72 hours incubation
# Source text: as §1
# [7] = test system: prostate cancer cell line PC-3; assay: Cell viability, trypan blue exclusion, PC-3; assay type: cell-based, human; details: 72 hours incubation
# Source text: as §1
# [8] = test system: breast cancer cell line MCF-7; assay: Cell viability, trypan blue exclusion, MCF-7; assay type: cell-based, human; details: 72 hours incubation
# Source text: as §1
# [9] = test system: pancreatic cancer cell line MIA PaCa-2; assay: Cell viability, trypan blue exclusion, MIA PaCa-2; assay type: cell-based, human; details: 72 hours incubation, read-out: Activity (IC50) MIAPaCa-2
# Source text: as §1
# U937 cells = assay: Morphology and apoptosis/necrosis in U937 cells (Giemsa; annexin V-FITC/PI flow cytometry); assay type: cell-based, human; details: 24 hours
# Method: U937 cells were treated with standard growth medium alone or with standard growth medium containing hydroxychavicol (30 μM) for 24 hours. Treated and untreated cells were stained with Giemsa and viewed under microscope (magnification ×1000). For measurement of apoptosis/necrosis, cells were left untreated or treated with Compound No. 1 (30 μM) or Compound No.7 (15 μM) for 24 hours. After washing, cells were stained with fluorescein isothiocyanate (FITC)-conjugated annexin V and propidium iodide (PI) and analysed in a flow cytometer (BD LSR, Becton Dickinson).
# FIG. 2B indicates flow cytometric determination of apoptosis and necrosis by Compound No.1 (hydroxychavicol) and Compound No.7. Apoptosis and necrosis of U937 cells were induced. Cells were left untreated (extreme left panel), or incubated with Compound No.1 (30 μM) (middle panel) or Compound No.7 (extreme right panel) (15 μM) for 24 hours and processed for flow cytometry after staining with annexin V-FITC and propidium iodide (PI). Viable cells are in the lower left quadrant (stained neither by annexin V nor by PI), early apoptotic cells (stained by annexin V only) are in the lower right quadrant, late-stage apoptotic cells (stained by both annexin V and PI) are in the upper right quadrant and the necrotic cells (stained by PI only) are in the upper left quadrant.
# normal human PBMC = assay: Apoptosis/necrosis of normal human PBMC by flow cytometry; assay type: cell-based; details: 30 μM, 24 hours
# Method: FIG. 2C indicates flow cytometric determination of apoptosis and necrosis of normal human PBMC by Compound 1 (30 μM) and Compound 7 (30 μM) after incubation for 24 hours.
# PI3/Akt pathway = assay: Activation of PI3/Akt pathway in MIA PaCa 2 cells (Western blot of Akt phosphorylation); assay type: cell-based, human; details: 30 μM, 24 hr, reversed by cPTIO 25 μM
# Method: MIA PaCa 2 cells were pretreated with NAC (5 mM), cPTIO (25 μM), PI3K inhibitor LY294002 (10 μM) for 3 hr followed by treatment with Compound 1 (30 μM) for 24 hr. Whole cell lysates were prepared and the phosphorylation status and protein expression of Akt were analyzed by Western blot. Cells were also treated with medium alone, Compound 1 (30 μM), c-PTIO (nitric oxide scavenger; 25 μM) or compound 1 plus c-PTIO for 24 hr.
# [10] = test system: endothelial nitric oxide synthase (eNOS); assay: NOS isoform siRNA transfection of MIA PaCa 2 cells, apoptosis and eNOS expression; assay type: cell-based, human; details: siRNA 48 hr, then 30 μM for 24 hr
# Method: MIA PaCa 2 cells were transfected with control siRNA, nNOS siRNA, iNOS siRNA or eNOS siRNA (purchased from Santa Cruz Biotechnology) for 48 hr. Transfections were carried out following the manufacturer's instructions. The transfection reagent used for siRNA transfection was purchased from Santa Cruz. Cells were then treated with vehicle control or Compound 1 (30 μM) for 24 hr. Apoptosis was analyzed by flow cytometry. To confirm that transfectin with siRNAs attenuate the protein expression of respective NOS isoforms, Western blot was performed with whole cell lysates.
# MCF-7 xenografts = assay: Human breast adenocarcinoma (MCF-7) xenograft in nude mice; assay type: in vivo; details: 100 mg/kg body weight oral twice a day for 10 days
# Method: MCF-7 cells were suspended to 5×10^7 cells/ml in Matrigel (BD Biosciences; 1 volume of cells with 1 volume of cold Matrigel). Nude female mice of 6 to 7 weeks of age (National Institute of Nutrition, Hyderabad, India) were injected with 0.2 ml of this cell suspension. Animals were left untreated until MCF-7 xenografts reached 200-300 mm^3.
# Compound 1 (100 mg/kg body weight) or vehicle control were administered via oral route twice a day for 10 days (5 mice per group).
smiles,measurement,setting,value
"C=CCc1ccc(O)c(O)c1 [Compound 1, 4-allyl-benzene-1,2-diol]",IC50,[1],80 µM
same,IC50,"[2]; K562, 72 hours incubation, trypan blue exclusion, read-out: Activity (IC50) K562",20 µM
same,IC50,"[2]; read-out: IC50 against chronic myeloid leukemia cancer cell lines (K562), range over both cell lines K562, KU812 and KU812 and over the listed compounds, read-out: IC50 against chronic myeloid leukemia cancer cell lines (K562, KU812)",13 to 52 µM
same,IC50,[3],25 µM
same,IC50,"[4]; 72 hours incubation, trypan blue exclusion, read-out: Activity (IC50) HL-60",25 µM
same,IC50,"[4]; range over both cell lines HL60 and U937 and over the listed compounds, read-out: IC50 against acute myeloid leukemia cancer cell line (HL60, U937)",13 to 60 µM
same,IC50,[5],25 µM
same,IC50,[6],30 µM
same,IC50,"[6]; Homo sapiens, MOLT-4, 72 h",15 to 50 µM
same,IC50,[7],35 µM
same,IC50,"[7]; Homo sapiens, 72 h",25 to 70 µM
same,IC50,[8],35 µM
same,IC50,"[8]; Homo sapiens, MCF7, 72 h",25 to 70 µM
same,IC50,[9],35 µM
same,IC50,"[9]; Homo sapiens, MIA PaCa-2, 72 h",30 to 70 µM
same,Morphology of U937 cells (mode of killing),"U937 cells; 30 μM, Giemsa staining, microscopy",due to both apoptosis and necrosis
same,Apoptosis and necrosis of U937 cells by flow cytometry,"U937 cells; Compound No.1 30 μM, Compound No.7 15 μM, annexin V-FITC/PI",induce apoptosis and necrosis
same,Apoptosis and necrosis of normal human PBMC by flow cytometry,normal human PBMC,remained unaffected
same,Effect on activation of PI3/Akt pathway,PI3/Akt pathway,inhibitis the activation of PI3/Akt pathway
same,NOS isoform involved in induced nitric oxide production and cell death,[10],Endothelial nitric oxide synthase (eNOS) is responsible
same,In vivo efficacy in MCF-7 xenografts,MCF-7 xenografts,further confirmed
